Tests used:
human DLK [1] = molecular target: T1, human DLK (Homo sapiens, UniProt Q12852); assay: DLK Kd Determinations (KINOMEscan KdELECT, DiscoveRx); design: full length of human DLK (amino acids 1-859); host or cells: transiently transfected HEK293 cells; unpurified extract; conditions: fusion protein of full length human DLK (amino acids 1-859) and NFkB DNA binding domain; qPCR readout; duplicate
T1 sequence (Q12852 1-859): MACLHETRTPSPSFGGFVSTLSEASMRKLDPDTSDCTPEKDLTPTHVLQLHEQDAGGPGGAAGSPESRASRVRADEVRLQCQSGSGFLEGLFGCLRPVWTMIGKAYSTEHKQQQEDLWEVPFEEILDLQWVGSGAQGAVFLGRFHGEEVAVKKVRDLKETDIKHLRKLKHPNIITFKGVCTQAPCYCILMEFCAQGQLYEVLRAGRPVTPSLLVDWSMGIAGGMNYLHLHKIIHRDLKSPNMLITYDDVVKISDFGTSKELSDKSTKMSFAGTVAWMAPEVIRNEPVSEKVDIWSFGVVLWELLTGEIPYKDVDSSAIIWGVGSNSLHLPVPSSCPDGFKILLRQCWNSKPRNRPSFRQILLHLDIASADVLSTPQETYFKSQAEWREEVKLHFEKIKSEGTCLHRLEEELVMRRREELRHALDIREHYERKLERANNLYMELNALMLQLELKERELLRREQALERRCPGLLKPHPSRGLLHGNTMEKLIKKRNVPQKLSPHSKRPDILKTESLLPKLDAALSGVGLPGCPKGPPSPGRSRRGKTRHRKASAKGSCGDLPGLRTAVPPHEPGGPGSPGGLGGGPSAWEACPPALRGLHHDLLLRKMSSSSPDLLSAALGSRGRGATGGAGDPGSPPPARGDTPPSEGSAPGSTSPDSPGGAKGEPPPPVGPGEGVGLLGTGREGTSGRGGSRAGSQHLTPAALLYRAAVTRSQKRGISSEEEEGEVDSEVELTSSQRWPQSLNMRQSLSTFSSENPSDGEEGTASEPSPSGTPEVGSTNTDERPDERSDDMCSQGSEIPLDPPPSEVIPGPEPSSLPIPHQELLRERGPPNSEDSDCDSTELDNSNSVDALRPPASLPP
Method in brief: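 Competition binding of full-length human DLK (aa 1-859)-NFkB DBD fusion, DNA-tagged, from HEK293 extracts against an immobilized ligand; 1 h at room temperature, 0.9% DMSO. Bead-bound kinase was quantified by qPCR. Kd came from an 11-point 3-fold series (top 30,000 nM), in duplicate, with Hill slope fixed at −1.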

human DLK [2] = molecular target: T1, human DLK; assay: Phospho-cJun Cellular Assay; assay type: cell-based; design: expressed in transfected cells; conditions: HEK293 cells stably transfected with Dox-inducible human DLK; p-cJun (Ser63); 5 h compound incubation
Experimental: Phospho-cJun Cellular Assay
HEK293 cells stably transfected with a Dox-inducible human DLK were plated into a 384-well plate in 20 μl (40,000 cells/well) of DMEM medium (without phenol red) containing 10% fetal bovine serum, 1.5 μg/ml doxycycline and 1 μg/ml puromycin. The cells as negative control were grown in the absence of doxycycline. The plate was incubated at 37° C., 5% CO2 for 20 h, before DMSO (control) or compounds diluted in medium were added. The cells were incubated at 37° C. for an additional 5 h, followed by lysis and the addition detection antibodies from p-cJun (Ser63) cellular assay kit (Cisbio) per manufacturer protocol. The standard dose response curves were fitted by Genedata Screener software using the variable-slope model: Signal=Signalnegative control+(SignalDMSO control−Signalnegative control)/(1+(IC50/Dose)̂Hill slope). Only signal and dose in the equation were treated as known values.

Row | Kd (human DLK [1]) [µM] | IC50 (human DLK [2]) [µM] | SMILES
1 | 0.039 | 1.2 | CC(C)c1nc(-c2cnc(N)c(OC(F)F)c2)cn1[C@H]1[C@@H]2CC(N3CCN(C)CC3)C[C@@H]21 (single isomer, unassigned) [Example 145a, 3-(difluoromethoxy)-5-(2-isopropyl-1-(3-(4-methylpiperazin-1-yl)bicyclo[3.1.0]hexan-6-yl)-1H-imidazol-4-yl)pyridin-2-amine]
2 | 0.0045 | 1.16 | CC(C)c1nc(-c2cnc(N)c(C(F)(F)F)c2)cn1[C@H]1[C@@H]2CC(N3CCN(CCF)CC3)C[C@@H]21 (single isomer, unassigned) [Example 155b, 5-(1-(3-(4-(2-fluoroethyl)piperazin-1-yl)bicyclo[3.1.0]hexan-6-yl)-2-isopropyl-1H-imidazol-4-yl)-3-(trifluoromethyl)pyridin-2-amine]
3 | 0.011 | 0.874 | CC(C)c1nc(-c2cnc(N)c(OC(F)(F)F)c2)cn1[C@H]1[C@@H]2CC(N3CCN(CCF)CC3)C[C@@H]21 (single isomer, unassigned) [Example 156b, 5-(1-(3-(4-(2-fluoroethyl)piperazin-1-yl)bicyclo[3.1.0]hexan-6-yl)-2-isopropyl-1H-imidazol-4-yl)-3-(trifluoromethoxy)pyridin-2-amine]
4 | 0.0056 | 0.769 | Nc1ncc(-c2cn([C@H]3[C@@H]4CC(N5CCN(CCF)CC5)C[C@@H]43)c(CC3CC3)n2)cc1C(F)(F)F (single isomer, unassigned) [Example 162b, 5-(2-(cyclopropylmethyl)-1-(3-(4-(2-fluoroethyl)piperazin-1-yl)bicyclo[3.1.0]hexan-6-yl)-1H-imidazol-4-yl)-3-(trifluoromethyl)pyridin-2-amine]
5 | 0.019 | 0.454 | CN1CCN(C2C[C@@H]3[C@H](C2)[C@H]3n2cc(-c3cnc(N)c(C(F)(F)F)c3)nc2CC2CC2)CC1 (single isomer, unassigned) [Example 161a, 5-(2-(cyclopropylmethyl)-1-(3-(4-methylpiperazin-1-yl)bicyclo[3.1.0]hexan-6-yl)-1H-imidazol-4-yl)-3-(trifluoromethyl)pyridin-2-amine]
6 | 0.037 | 1.35 | Nc1ncc(-c2cn([C@H]3[C@@H]4CC(N5CCN(CCF)CC5)C[C@@H]43)c(CC3CC3)n2)cc1OC(F)(F)F (single isomer, unassigned) [Example 152a, 5-(2-(cyclopropylmethyl)-1-(3-(4-(2-fluoroethyl)piperazin-1-yl)bicyclo[3.1.0]hexan-6-yl)-1H-imidazol-4-yl)-3-(trifluoromethoxy)pyridin-2-amine]
7 | – | 0.629 | CN1CCN(C2C[C@@H]3[C@H](C2)[C@H]3n2cc(-c3cnc(N)c(C(F)(F)F)c3)nc2CC2CC2)CC1 (single isomer, unassigned) [Example 161b, 5-(2-(cyclopropylmethyl)-1-(3-(4-methylpiperazin-1-yl)bicyclo[3.1.0]hexan-6-yl)-1H-imidazol-4-yl)-3-(trifluoromethyl)pyridin-2-amine]
8 | – | 1.04 | Nc1ncc(-c2cn([C@H]3[C@@H]4CC(N5CCN(CCF)CC5)C[C@@H]43)c(CC3CC3)n2)cc1C(F)(F)F (single isomer, unassigned) [Example 162a, 5-(2-(cyclopropylmethyl)-1-(3-(4-(2-fluoroethyl)piperazin-1-yl)bicyclo[3.1.0]hexan-6-yl)-1H-imidazol-4-yl)-3-(trifluoromethyl)pyridin-2-amine]

More lines, now with the values behind:

Row | SMILES | Kd (human DLK [1]) [µM] | IC50 (human DLK [2]) [µM]
9 | CC(C)c1nc(-c2cnc(N)c(OC(F)F)c2)cn1[C@H]1[C@@H]2CN(C3COC3)C[C@@H]21 [Example 83, 3-(difluoromethoxy)-5-(2-isopropyl-1-((1R,5S,6s)-3-(oxetan-3-yl)-3-azabicyclo[3.1.0]hexan-6-yl)-1H-imidazol-4-yl)pyridin-2-amine] | 0.16 | 3.55
10 | Nc1ncc(-c2cn([C@H]3[C@@H]4CC(N5CCOCC5)C[C@@H]43)c(CC3CC3)n2)cc1C(F)(F)F (single isomer, unassigned) [Example 138b, 5-(2-(cyclopropylmethyl)-1-(3-morpholinobicyclo[3.1.0]hexan-6-yl)-1H-imidazol-4-yl)-3-(trifluoromethyl)pyridin-2-amine] | 0.034 | 1.05
11 | C[C@H]1COCCN1C1C[C@@H]2[C@H](C1)[C@H]2n1cc(-c2cnc(N)c(C(F)(F)F)c2)nc1C1CC1 (single isomer, unassigned) [Example 140b] | 0.0375 | 0.636
12 | Nc1ncc(-c2cn([C@H]3[C@@H]4CNC[C@@H]43)c(CC3CC3)n2)cc1OC(F)(F)F [Example 90, 5-(1-((1R,5S,6s)-3-azabicyclo[3.1.0]hexan-6-yl)-2-(cyclopropylmethyl)-1H-imidazol-4-yl)-3-(trifluoromethoxy)pyridin-2-amine] | 0.04 | 1.12
13 | CC(C)c1nc(-c2cnc(N)c(C(F)(F)F)c2)cn1[C@H]1[C@@H]2CC(N3CCCOCC3)C[C@@H]21 (stereo partly shown) [Example 130, 5-(1-(3-(1,4-oxazepan-4-yl)bicyclo[3.1.0]hexan-6-yl)-2-isopropyl-1H-imidazol-4-yl)-3-(trifluoromethyl)pyridin-2-amine] | 0.025 | 1.76
14 | COCCN1C[C@@H]2[C@H](C1)[C@H]2n1cc(-c2cnc(N)c(OC(F)(F)F)c2)nc1C1CC1 [Example 68, 5-(2-cyclopropyl-1-((1R,5S,6s)-3-(2-methoxyethyl)-3-azabicyclo[3.1.0]hexan-6-yl)-1H-imidazol-4-yl)-3-(trifluoromethoxy)pyridin-2-amine] | 0.077 | 0.745
15 | CC(C)c1nc(-c2cnc(N)c(C(F)(F)F)c2)cn1[C@H]1C[C@H](N2CCOCC2)C1 [Example 42, 5-(2-isopropyl-1-((1r,3r)-3-morpholinocyclobutyl)-1H-imidazol-4-yl)-3-(trifluoromethyl)pyridin-2-amine] | 0.18 | 2.23
16 | Nc1ncc(-c2cn([C@H]3[C@@H]4CN(C5CCOCC5)C[C@@H]43)c(CC3CC3)n2)cc1C(F)(F)F [Example 76, 5-(2-(cyclopropylmethyl)-1-((1R,5S,6s)-3-(tetrahydro-2H-pyran-4-yl)-3-azabicyclo[3.1.0]hexan-6-yl)-1H-imidazol-4-yl)-3-(trifluoromethyl)pyridin-2-amine] | 0.051 | 0.76
17 | CC(C)c1nc(-c2cnc(N)c(C(F)(F)F)c2)cn1[C@H]1C[C@@H](N2CCOCC2)C1 [Example 44, 5-(2-isopropyl-1-((1s,3s)-3-morpholinocyclobutyl)-1H-imidazol-4-yl)-3-(trifluoromethyl)pyridin-2-amine] | – | 7.69
18 | CC(C)c1nc(-c2cnc(N)c(OC(F)F)c2)cn1[C@H]1[C@@H]2CNC[C@@H]21 [Example 50, 5-(1-((1R,5S,6s)-3-azabicyclo[3.1.0]hexan-6-yl)-2-isopropyl-1H-imidazol-4-yl)-3-(difluoromethoxy)pyridin-2-amine] | 0.17 | –
19 | Nc1ncc(-c2cn([C@H]3[C@@H]4CN(C5COC5)C[C@@H]43)c(C3CCCC3)n2)cc1OC(F)(F)F [Example 63, 5-(2-cyclopentyl-1-((1R,5S,6s)-3-(oxetan-3-yl)-3-azabicyclo[3.1.0]hexan-6-yl)-1H-imidazol-4-yl)-3-(trifluoromethoxy)pyridin-2-amine] | 0.14 | –
20 | Nc1ncc(-c2cn([C@H]3[C@@H]4CN(CC(F)F)C[C@@H]43)c(C3CC3)n2)cc1C(F)(F)F [Example 75, 5-(2-cyclopropyl-1-((1R,5S,6s)-3-(2,2-difluoroethyl)-3-azabicyclo[3.1.0]hexan-6-yl)-1H-imidazol-4-yl)-3-(trifluoromethyl)pyridin-2-amine] | 0.056 | –

Source: patent US20180057507A1, “INHIBITORS OF DUAL LEUCINE ZIPPER (DLK) KINASE FOR THE TREATMENT OF DISEASE” (Board of Regents, The University of Texas System, priority 2016, published 2018)
